According to patent US20160002247A1, “8-SUBSTITUTED IMIDAZOPYRIMIDINONE DERIVATIVE HAVING AUTOTAXIN INHIBITORY ACTIVITY” (THE UNIVERSITY OF TOKYO, priority 2013, published 2016):

target: T1, Human autotaxin enzyme (Homo sapiens, UniProt Q13822); experiment: Evaluation of autotaxin inhibitor, Method C (Test Example 3): 18:0 Lyso PC, choline assay, Resorufin fluorescence; assay type: biochemical; settings: Assay Method C (Test Example 3), human autotaxin, 18:0 Lyso PC substrate; read-out: Inhibitory Activity (autotaxin enzyme inhibitory activity, IC50 class)
T1 construct: purchased R&D System
In short: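 Human autotaxin in Tris-HCl pH 7.5, 150 mM NaCl, 5 mM MgCl2, 0.05% Triton X-100 reacted 2 h at room temperature with 18:0 Lyso PC (200 μM solution added). Released choline detected via choline oxidase/peroxidase/Amplex-type reagent, resorufin fluorescence (ex 531/em 598 nm); inhibition vs no-compound and no-enzyme controls, concentration-response curve.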

Row | SMILES | IC50
1 | CCCCCn1c(N2C[C@@H](O)C[C@H]2C(=O)N[C@H](C(=O)O)C(C)(C)C)cc(=O)n2cc(-c3ccc(Cl)cc3)nc12 [Compound 778] | < 10 nM
2 | CCCCCn1c(N2CCCC[C@H]2C(=O)NCCC(=O)O)cc(=O)n2cc(-c3ccc(Cl)cc3)nc12 [Compound 621] | < 10 nM
3 | CN(C)CCNC(=O)c1ccc(-c2cc(=O)n3cc(-c4ccc(C#N)cc4)nc3n2CCCC(F)(F)F)cc1 [Compound 387] | 10 to 100 nM
4 | CCCCCn1c(N2CCC[C@H]2C(=O)NC(CO)C(=O)O)cc(=O)n2cc(-c3ccc(Cl)cc3)nc12 (stereo partly drawn) [Compound 672] | 10 to 100 nM
5 | CCCCCn1c(N2CCC[C@H]2C(=O)N[C@@H](Cc2ccc3ccccc3c2)C(=O)O)cc(=O)n2cc(-c3ccc(Cl)cc3)nc12 [Compound 726] | < 10 nM
6 | CCCCCn1c(NCCC(=O)O)cc(=O)n2cc(-c3ccc(Cl)cc3)nc12 [Compound 601] | 100 to 1000 nM
7 | CCCCCn1c(N2CCC[C@H]2C(=O)NCC(=O)N(C)C)cc(=O)n2cc(-c3ccc(Cl)cc3)nc12 [Compound 699] | 100 to 1000 nM
8 | NC(=O)c1ccc(-c2cc(=O)n3cc([C@H]4CC[C@H](C(F)(F)F)CC4)nc3n2CCCC(F)(F)F)cc1 [Compound 136, 4-(5-oxo-8-(4,4,4-trifluorobutyl)-2-((1r,4r)-4-(trifluoromethyl)cyclohexyl)-5,8-dihydroimidazo[1,2-a]pyrimidine-7-yl)benzamide] | 100 to 1000 nM
9 | CCCCCn1c(N2CCC[C@H]2C(=O)N2CCO[C@H](C(=O)O)C2)cc(=O)n2cc(-c3ccc(Cl)cc3)nc12 [Compound 680] | 10 to 100 nM
10 | CCCCCn1c(-c2ccc(C(=O)NCC(=O)N(C)C)cc2)cc(=O)n2cc(-c3ccc(Cl)cc3)nc12 [Compound 496] | 10 to 100 nM
11 | CCCCCn1c(-c2ccc(C(=O)NC3CCS(=O)(=O)CC3)cc2)cc(=O)n2cc(-c3ccc(Cl)cc3)nc12 [Compound 493] | 10 to 100 nM
12 | CCCCCn1c(N2C[C@H](O)C[C@H]2C(=O)NC(C)(C)CC(=O)OCC)cc(=O)n2cc(-c3ccc(Cl)cc3)nc12 [Compound 597] | 10 to 100 nM
13 | CCCCCn1c(-c2cccc(C(=O)NCCN(C)C)c2)cc(=O)n2cc(-c3ccc(Cl)cc3)nc12 [Compound 439] | 10 to 100 nM
14 | CCCCCn1c(N2CCCC(CO)C2)cc(=O)n2cc(-c3ccc(Cl)cc3)nc12 (stereo not drawn) [Compound 301] | 100 to 1000 nM
15 | CCCCCn1c(-c2ccc(C(=O)NCCS(C)(=O)=O)cc2)cc(=O)n2cc(-c3ccc(Cl)cc3)nc12 [Compound 494] | 10 to 100 nM
16 | CCCCCn1c(N2CCC[C@H]2C(=O)NC(C)(C)C(=O)OC)cc(=O)n2cc(-c3ccc(Cl)cc3)nc12 [Compound 689] | < 10 nM
17 | CCCCCn1c(N2CCC[C@H](C(=O)NCCC(=O)O)C2)cc(=O)n2cc(-c3ccc(Cl)cc3)nc12 [Compound 616] | < 10 nM
18 | CCCCCn1c(-c2ccc(C(=O)NC[C@@H](O)CO)cc2)cc(=O)n2cc(-c3ccc(Cl)cc3)nc12 [Compound 504] | 10 to 100 nM
19 | CCCCCn1c(N2CCCC(C)C2)cc(=O)n2cc(-c3ccc(Cl)cc3)nc12 (stereo not drawn) [Compound 300] | 100 to 1000 nM
20 | CCCCCn1c(-c2cccc(C(=O)NCCOC)c2)cc(=O)n2cc(-c3ccc(Cl)cc3)nc12 [Compound 436] | 10 to 100 nM
21 | CCCCCn1c(-c2ccc(CC)cc2)cc(=O)n2cc(-c3ccc(Cl)cc3)nc12 [Compound 435] | 100 to 1000 nM
22 | CCCCCn1c(-c2ccc(C(=O)NCCOCCO)cc2)cc(=O)n2cc(-c3ccc(Cl)cc3)nc12 [Compound 480] | 10 to 100 nM
23 | CCCCCn1c(N2CCCCC2CCO)cc(=O)n2cc(-c3ccc(Cl)cc3)nc12 (stereo not drawn) [Compound 302] | 10 to 100 nM
24 | CCCCCn1c(N(CCOCCOC)C(C)=O)cc(=O)n2cc(-c3ccc(Cl)cc3)nc12 [Compound 562] | 100 to 1000 nM
25 | CCCCCn1c(N2CCCC(CNC(=O)OC(C)(C)C)C2)cc(=O)n2cc(-c3ccc(Cl)cc3)nc12 (stereo not drawn) [Compound 311] | 100 to 1000 nM

Row | SMILES | IC50
26 | CCCCCn1c(-c2ccccc2NS(C)(=O)=O)cc(=O)n2cc(-c3ccc(Cl)cc3)nc12 [Compound 440] | 100 to 1000 nM
27 | N#Cc1ccc(-c2cn3c(=O)cc(-c4ccc(C(N)=O)cc4)n(CCCC(F)(F)F)c3n2)cc1 [Compound 388] | 10 to 100 nM
28 | CCCCCn1c(-c2ccc(C(=O)NC3CN4CCC3CC4)cc2)cc(=O)n2cc(-c3ccc(Cl)cc3)nc12 (stereo not drawn) [Compound 510] | < 10 nM
29 | CCCCCn1c(-c2ccc(C(=O)NC3CN(C)C3)cc2)cc(=O)n2cc(-c3ccc(Cl)cc3)nc12 [Compound 489] | 10 to 100 nM
30 | CCCCCn1c(N2CCCC(CN)C2)cc(=O)n2cc(-c3ccc(Cl)cc3)nc12 (stereo not drawn) [Compound 328] | 100 to 1000 nM
31 | CCCCCn1c(-c2ccc(C(=O)NCCS(=O)(=O)N3CCOCC3)cc2)cc(=O)n2cc(-c3ccc(Cl)cc3)nc12 [Compound 501] | 10 to 100 nM
32 | CCCCCn1c(N2CCC[C@H]2C(=O)NC(C)C(=O)O)cc(=O)n2cc(-c3ccc(Cl)cc3)nc12 (stereo partly drawn) [Compound 737] | < 10 nM
33 | CN(C)CCNC(=O)c1ccc(-c2cc(=O)n3cc(-c4ccc(Cl)cc4)nc3n2CCCC(F)(F)F)cc1 [Compound 381] | 10 to 100 nM
34 | CCCCCn1c(-c2ccc(C(=O)N(CCO)CCO)cc2)cc(=O)n2cc(-c3ccc(Cl)cc3)nc12 [Compound 467] | 10 to 100 nM
35 | CCCCCn1c(O[C@H]2CCN(C(=O)OC(C)(C)C)C2)cc(=O)n2cc(-c3ccc(Cl)cc3)nc12 [Compound 549] | 10 to 100 nM
36 | O=C(O)CNC(=O)[C@@H]1C[C@@H](O)CN1c1cc(=O)n2cc(-c3ccc(Cl)cc3)nc2n1Cc1ccccc1 [Compound 750] | 10 to 100 nM
37 | CCCCCn1c(-c2ccc(C(=O)NCCF)cc2)cc(=O)n2cc(-c3ccc(Cl)cc3)nc12 [Compound 475] | 10 to 100 nM
38 | CCCCCn1c(N2CCC[C@@]2(C)C(=O)NCC(=O)O)cc(=O)n2cc(-c3ccc(Cl)cc3)nc12 [Compound 635] | > 1000 nM
39 | CCCCCn1c(-c2cnc(C(=O)NCCC(=O)OC)nc2)cc(=O)n2cc(-c3ccc(Cl)cc3)nc12 [Compound 534] | < 10 nM
40 | CCCCCn1c(N(Cc2ccc(C(=O)O)cc2)C(C)=O)cc(=O)n2cc(-c3ccc(Cl)cc3)nc12 [Compound 569] | < 10 nM
41 | CCCCCn1c(N2CCC[C@H]2C(=O)N(C)CC(=O)OC)cc(=O)n2cc(-c3ccc(Cl)cc3)nc12 [Compound 683] | 10 to 100 nM
42 | CCCCCn1c(N2CCCC[C@@H]2C(=O)O)cc(=O)n2cc(-c3ccc(Cl)cc3)nc12 [Compound 612] | 100 to 1000 nM
43 | Cn1c(N2CCC[C@H]2C(=O)NCC(=O)O)cc(=O)n2cc(-c3ccc(Cl)cc3)nc12 [Compound 768] | > 1000 nM
44 | CCCCCn1c(-c2cncnc2)cc(=O)n2cc(-c3ccc(Cl)cc3)nc12 [Compound 409] | 10 to 100 nM
45 | CCCCCn1c(N2CCC[C@H]2C(=O)N2CCC[C@H]2C(=O)O)cc(=O)n2cc(-c3ccc(Cl)cc3)nc12 [Compound 337] | 10 to 100 nM
46 | CCCCCn1c(-c2ccc(C(=O)N3CCN(CCOC)CC3)cc2)cc(=O)n2cc(-c3ccc(Cl)cc3)nc12 [Compound 485] | 10 to 100 nM
47 | Cn1c(N2CCC[C@H]2C(=O)N[C@@H](CCc2ccccc2)C(=O)O)cc(=O)n2cc(-c3ccc(Cl)cc3)nc12 [Compound 769] | 10 to 100 nM
48 | O=c1cc(Cl)[nH]c2nc([C@H]3CC[C@H](C(F)(F)F)CC3)cn12 [Compound 135, 7-chloro-2-((1r,4r)-4-(trifluoromethyl)cyclohexyl)imidazo[1,2-a]pyrimidin-5(8H)-one] | > 1000 nM
49 | CCCCCn1c(-c2cccc(C(C)=O)c2)cc(=O)n2cc(-c3ccc(Cl)cc3)nc12 [Compound 447] | 10 to 100 nM
50 | CCCCCn1c(-c2ccc(C(=O)NC)cc2)cc(=O)n2cc(-c3ccc(Cl)cc3)nc12 [Compound 495] | 10 to 100 nM

same assay, conditions: Assay Method C, human autotaxin, 18:0 Lyso PC substrate; read-out: Inhibitory Activity

Row | SMILES | IC50
51 | CCCCCn1c(N2CCC[C@H]2C(=O)Nc2cc(O)[nH]n2)cc(=O)n2cc(-c3ccc(Cl)cc3)nc12 [Compound 788] | > 1000 nM
52 | O=C1CCN(C(=O)Cc2cn(CCCC(F)(F)F)c3nc(-c4ccc(Cl)cc4)cn3c2=O)C1 [Compound 860] | 100 to 1000 nM
53 | NS(=O)(=O)CCNC(=O)Cc1cn(CCCC(F)(F)F)c2nc(-c3ccc(Cl)cc3)cn2c1=O [Compound 855] | > 1000 nM
54 | CCCCCn1c(N2CCC[C@@H](c3ccccc3)C2)cc(=O)n2cc(-c3ccc(Cl)cc3)nc12 [Compound 813] | > 1000 nM
55 | CCCCCn1c(N2CCC[C@H]2C(=O)Nc2ccc(-c3nn[nH]n3)cc2)cc(=O)n2cc(-c3ccc(Cl)cc3)nc12 [Compound 784] | 100 to 1000 nM
56 | O=C(O)Cc1cn(CCCC(F)(F)F)c2nc(-c3ccc(Cl)cc3)cn2c1=O [Compound 827] | > 1000 nM
57 | O=C(Cc1cn(CCCC(F)(F)F)c2nc(-c3ccc(Cl)cc3)cn2c1=O)N[C@H]1CCN(C2COC2)C1 [Compound 852] | > 1000 nM
58 | CCCCCn1c(N2CC3CC3C2)cc(=O)n2cc(-c3ccc(Cl)cc3)nc12 (stereo not drawn) [Compound 810] | 100 to 1000 nM
59 | CCCCCn1c(N2CCC[C@H]2C(=O)Oc2cc(N)ccc2OC)cc(=O)n2cc(-c3ccc(Cl)cc3)nc12 [Compound 801] | 100 to 1000 nM
60 | CCCCCn1c(N2CCC[C@H]2C(=O)N[C@@H](CC(C)C)C(N)=O)cc(=O)n2cc(-c3ccc(Cl)cc3)nc12 [Compound 797] | 10 to 100 nM
61 | CN(CC(O)CO)C(=O)Cc1cn(CCCC(F)(F)F)c2nc(-c3ccc(Cl)cc3)cn2c1=O (stereo not drawn) [Compound 854] | > 1000 nM
62 | C[C@@H]1COC[C@H](C)N1C(=O)Cc1cn(CCCC(F)(F)F)c2nc(-c3ccc(Cl)cc3)cn2c1=O [Compound 850] | 100 to 1000 nM
63 | O=C(Cc1cn(CCCC(F)(F)F)c2nc(-c3ccc(Cl)cc3)cn2c1=O)N1CCOCC1 [Compound 865] | 100 to 1000 nM
64 | CCCCCn1c(N2CCC[C@H]2C(=O)NCC(=O)OC)cc(=O)n2cc(-c3ccc(Cl)cc3)nc12 [Compound 816] | 10 to 100 nM
65 | CCCCCn1c(N2CCC[C@H]2C(=O)Nc2cccc(-c3nn[nH]n3)c2)cc(=O)n2cc(-c3ccc(Cl)cc3)nc12 [Compound 787] | 100 to 1000 nM
66 | CCCCCn1c(N2CCC[C@H]2C(=O)NC(C)C(O)C(F)(F)F)cc(=O)n2cc(-c3ccc(Cl)cc3)nc12 (stereo partly drawn) [Compound 800] | 10 to 100 nM
